The values below come from patent US8268809B2, “Kinase inhibitors for preventing or treating pathogen infection and method of use thereof” (priority 2006, dated 2012).

Entries after “also recorded” stand apart in the source; their conditions may differ.
For VACCINIA PLAQUE ASSAY 2 in this document: test concentration or dose not given here.

The subject of this assay is vaccinia virus. It is filed as cell-based.
With `CCOC(=O)c1ccc(-c2n[nH]c3nc(-c4cccc(NC(C)=O)c4)ccc23)cc1` [APcK-105], the “Class category of infected monolayers in plaque assay” value (“Class category of infected monolayers” below) is given as “Class III”; the “Plaque phenotype due to drug treatment (FIGS. 1, 2, 4)” value (“Plaque phenotype due” below) is “no pinpoint plaque formed; also recorded: no plaques”; the “VACCINIA PLAQUE ASSAY 2” value is on record as “PINPOINT PLAQUES”; the “VACCINIA Plaque Assay” value is reported as “NO PLAQUES”.
With `COC(=O)C1(Cc2ccccc2)OC(=O)C(O)=C1c1ccccc1` (centres unmarked) [butyro- lactones-1], the “Plaque phenotype due” value was “more plaque formations than wild type; also recorded: more plaques than WT” and the “VACCINIA Plaque Assay” value is given as “SMALL PLAQUES WITH LARGE TAILS OR CPE”.
Consider `Cc1ccc(-n2c(=O)[nH]c3c(C(N)=O)nc(-c4c(F)cc(Cl)cc4F)nc32)cc1` [dm-I-187], for which the “Class category of infected monolayers” value is “Class III”; the “Plaque phenotype due” value is listed as “small plaques with no comets; also recorded: smaller (pinpoint) plaques with no comets”; the “VACCINIA PLAQUE ASSAY 2” value was “NO PLAQUES”; the “VACCINIA Plaque Assay” value is on record as “SMALL PLAQUES”.
Take `COc1ccc(Nc2nccn3c(-c4cccc(C(N)=O)c4)cnc23)cc1` [LG2-13]: the “Class category of infected monolayers” value is “Class III”, the “VACCINIA PLAQUE ASSAY 2” value was “SLIGHTLY SMALLER PLAQUES” and the “VACCINIA Plaque Assay” value is listed as “PINPOINT PLAQUES”.
On to `CC(=O)Nc1cccc(-c2ccc3c(-c4ccc(Cl)c(F)c4)n[nH]c3n2)c1` [APcK-104], for which the “Class category of infected monolayers” value is on record as “Class III”, the “VACCINIA PLAQUE ASSAY 2” value was “PINPOINT PLAQUES” and the “VACCINIA Plaque Assay” value is “SMALLER PLAQUES THAN WT. NO COMETS”.
Turning to `O=C(NCCO)c1cccc(-c2cnc3c(NCc4ccc(F)cc4)nccn23)c1` [LG2-96], the “Class category of infected monolayers” value was “Class III”; the “Plaque phenotype due” value is reported as “no pinpoint plaque formed; also recorded: no plaques”; the “VACCINIA PLAQUE ASSAY 2” value was “NO PLAQUES”; the “VACCINIA Plaque Assay” value is listed as “NO PLAQUES”.
With `Cc1ccc(-n2c(=O)[nH]c3c(C(N)=O)nc(-c4ccc([N+](=O)[O-])cc4[N+](=O)[O-])nc32)cc1` [dm-I-180], the “VACCINIA Plaque Assay” value is “LARGE TAILS”.
Turning to `COc1ccccc1NS(=O)(=O)c1cccc(Nc2cc(-c3ccc(NC(=O)CCC(=O)O)cc3)ncn2)c1` [Eph2_wbz 117], the “Class category of infected monolayers” value is recorded as “Class III”, the “VACCINIA PLAQUE ASSAY 2” value is “SMALL PLAQUES; COMETS?” and the “VACCINIA Plaque Assay” value is listed as “NO PLAQUES”.
Regarding `CC(=O)Nc1cccc(-c2ccc3c(-c4ccc(F)c(C)c4)n[nH]c3n2)c1` [APcK-102], the “Class category of infected monolayers” value was “Class III”, the “VACCINIA PLAQUE ASSAY 2” value is listed as “NO PLAQUES” and the “VACCINIA Plaque Assay” value was “SMALLER PLAQUES THAN WT”.
With `Brc1cnc2c(NCC3CC3)nccn12` [LG2-101], the “Class category of infected monolayers” value is “Class III”; the “VACCINIA PLAQUE ASSAY 2” value is listed as “PINPOINTS”; the “VACCINIA Plaque Assay” value is reported as “SMALL PLAQUES, WITH TAILS”.
Turning to `CC(=O)Nc1ccc(-c2ccc3c(-c4ccc(Br)cc4)n[nH]c3n2)cc1` [APcK-27], the “Class category of infected monolayers” value is reported as “Class III”; the “Plaque phenotype due” value is recorded as “pinpoint plaque formations; also recorded: pinpoint plaques”; the “VACCINIA PLAQUE ASSAY 2” value was “SMALL PLAQUES”; the “VACCINIA Plaque Assay” value is “PINPOINT PLAQUES”.
As to `CC(=O)Nc1ccc(-c2ccc3c(-c4ccc(C)c(F)c4)n[nH]c3n2)cc1` [APcK-28], the “VACCINIA PLAQUE ASSAY 2” value is “SMALL PLAQUES”.
Turning to `COc1ccc(Nc2nccn3c(Br)cnc23)cc1` [LG2-9], the “Class category of infected monolayers” value is reported as “Class III”, the “VACCINIA PLAQUE ASSAY 2” value was “PINPOINTS” and the “VACCINIA Plaque Assay” value is recorded as “SLIGHTLY SMALLER PLAQUES”.
With `COc1ccccc1NS(=O)(=O)c1cccc(Nc2cc(-c3ccc(C(C)=O)cc3)ncn2)c1` [Eph2_wbz 110], the “Class category of infected monolayers” value is recorded as “Class III”; the “Plaque phenotype due” value was “pinpoint plaque formations; also recorded: pinpoint plaques”; the “VACCINIA PLAQUE ASSAY 2” value is “PINPOINT”; the “VACCINIA Plaque Assay” value is on record as “PINPOINT PLAQUES”.
Regarding `Cc1cc(-c2ccc3c(-c4ccc(Cl)c(F)c4)n[nH]c3n2)cc(C)c1O` [APcK-107], the “Class category of infected monolayers” value is recorded as “Class II”, the “VACCINIA PLAQUE ASSAY 2” value is recorded as “SMALLER PLAQUES THAN WT” and the “VACCINIA Plaque Assay” value is reported as “SMALLER PLAQUES THAN WT”.
As for `CC(=O)Nc1ccc(-c2ccc3c(-c4ccc(Br)c(F)c4)n[nH]c3n2)cc1` [APcK-20], the “VACCINIA PLAQUE ASSAY 2” value was “NO PLAQUES”.
As for `CN(C)CCNC(=O)c1ccc(-c2cnc3c(Nc4ccc(Oc5ccccc5)cc4)nccn23)cc1` [LG2-11], the “Class category of infected monolayers” value was “Class III”; the “VACCINIA PLAQUE ASSAY 2” value was “NO PLAQUES”; the “VACCINIA Plaque Assay” value is “CPE, PINPOINT PLAQUES”.
As to `NC(=O)c1cccc(-c2ccc3c(-c4ccc(F)cc4)n[nH]c3n2)c1` [APcK-115], the “VACCINIA PLAQUE ASSAY 2” value was “SMALL PLAQUES”.
In the case of `Cn1c(=O)c(-c2c(Cl)cccc2Cl)cc2cnc(Nc3cccc(C(C)(C)C)c3)nc21` [YYA195], the “Class category of infected monolayers” value was “Class III”, the “VACCINIA PLAQUE ASSAY 2” value is on record as “NO PLAQUES” and the “VACCINIA Plaque Assay” value is listed as “NO PLAQUES”.
`Cc1ccc(NC(=O)c2ccc(CN3CCN(Cc4ccc(I)cc4)CC3)cc2)cc1Nc1nccc(-c2cccnc2)n1` [STLL3]: the “Class category of infected monolayers” value was “Class III”, the “VACCINIA PLAQUE ASSAY 2” value is reported as “NO PLAQUES” and the “VACCINIA Plaque Assay” value is recorded as “PINPOINT PLAQUES”.
Turning to `Brc1cnc2c(NCc3cccs3)nccn12` [LG2-95], the “Class category of infected monolayers” value is “Class III”, the “VACCINIA PLAQUE ASSAY 2” value was “NO PLAQUES” and the “VACCINIA Plaque Assay” value was “PINPOINT PLAQUES”.
For `O=C(c1ccccc1)c1ccc(-c2ccc3c(-c4ccc(Cl)c(F)c4)n[nH]c3n2)cc1` [APcK-35], the “Class category of infected monolayers” value was “Class III”; the “VACCINIA PLAQUE ASSAY 2” value is recorded as “NO PLAQUES”; the “VACCINIA Plaque Assay” value is listed as “SMALL PLAQUES, NO COMETS”.
In the case of `Cc1ccc(NC(=O)c2ccc(CN3CCN(CCO)CC3)cc2)cc1Nc1nccc(-c2cccnc2)n1` [STI-OH], the “Class category of infected monolayers” value is “Class III”, the “VACCINIA PLAQUE ASSAY 2” value is on record as “SMALL PLAQUES” and the “VACCINIA Plaque Assay” value was “PINPOINT PLAQUES”.
As for `COc1ccccc1NS(=O)(=O)c1cccc(Nc2cc(-c3ccc(C(=O)O)cc3)ncn2)c1` [Eph2_wbz 104], the “Class category of infected monolayers” value was “Class III”, the “VACCINIA PLAQUE ASSAY 2” value is listed as “SLIGHTLY SMALLER PLAQUES” and the “VACCINIA Plaque Assay” value was “NO PLAQUES”.
Consider `COc1ccccc1Nc1cc(-c2ccc(O)cc2)ncn1` [Eph2_wbz 202], for which the “Class category of infected monolayers” value was “Class III”; the “VACCINIA PLAQUE ASSAY 2” value is listed as “PINPOINT PLAQUES”; the “VACCINIA Plaque Assay” value is reported as “PLAQUES SMALLER THAN WT, STILL SEE COMETS”.
The like results for `Cn1c(=O)c(-c2c(Cl)cccc2Cl)cc2cnc(NC3CCCCC3)nc21` [YYA194] were, in that order, “Class III”, “NO PLAQUES” and “PINPOINT PLAQUES”.
